Assays:
[1] = molecular target: T1, human Brd4 BD1 (hBrd4 BD1) (Homo sapiens, UniProt O60885); experiment: HTRF competition with biotinylated H4ac4 peptide; assay type: binding
[2] = molecular target: T2, human Brd4 BD2 (hBrd4 BD2) (Homo sapiens, UniProt O60885); experiment: HTRF competition with biotinylated H4ac4 peptide; assay type: binding
CgBdf1 BD2 (CgBD2) [3] = molecular target: T3, CgBdf1 BD2 (CgBD2) (Nakaseomyces glabratus, UniProt Q6FWV7); experiment: HTRF competition with biotinylated H4ac4 peptide; assay type: binding
T3 sequence (Q6FWV7 269-391): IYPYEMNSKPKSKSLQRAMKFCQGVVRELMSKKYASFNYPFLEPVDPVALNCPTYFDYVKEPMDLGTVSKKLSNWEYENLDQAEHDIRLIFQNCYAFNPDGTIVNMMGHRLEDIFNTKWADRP

CgBdf1 BD1 (CgBD1) [4] = molecular target: T4, CgBdf1 BD1 (CgBD1) (Nakaseomyces glabratus, UniProt Q6FWV7); experiment: HTRF competition with biotinylated H4ac4 peptide; assay type: binding
T4 sequence (Q6FWV7 100-228): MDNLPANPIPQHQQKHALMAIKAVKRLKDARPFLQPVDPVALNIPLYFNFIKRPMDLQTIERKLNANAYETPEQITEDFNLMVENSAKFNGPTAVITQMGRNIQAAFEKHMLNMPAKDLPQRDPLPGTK

[5] = molecular target: T2, human Brd4 BD2 (hBrd4 BD2); experiment: biochemical
[6] = molecular target: T1, human Brd4 BD1 (hBrd4 BD1); experiment: biochemical
CgBdf1 BD1 (CgBD1) [7] = molecular target: T4, CgBdf1 BD1 (CgBD1); experiment: biochemical
CgBdf1 BD2 (CgBD2) [8] = molecular target: T3, CgBdf1 BD2 (CgBD2); experiment: biochemical

IC50 [1] [nM] | IC50 [2] [nM] | IC50 (CgBdf1 BD2 (CgBD2) [3]) [nM] | IC50 (CgBdf1 BD1 (CgBD1) [4]) [nM] | IC50 [5] [nM] | IC50 [6] [nM] | IC50 (CgBdf1 BD1 (CgBD1) [7]) [nM] | IC50 (CgBdf1 BD2 (CgBD2) [8]) [nM] | SMILES
> 20000 | > 20000 | > 20000 | 2230 ± 260 | – | – | – | – | Cc1ccc(-c2nnc(C)c(NCc3cccs3)n2)cc1 [compound 24, 24]
– | – | 2060 ± 230 | 1810 ± 1140 | 440 | 2900 | 1100 | 2300 | CC(=O)N1CCc2[nH]c3ccc(C(=O)Nc4ccc(N5CCOCC5)cc4)cc3c2C1 [compound 29, 29]
25900 ± 7900 | – | – | 610 ± 100 | – | > 20000 | – | – | Cn1nccc1C(=O)NCc1ccc(-c2nc(-c3cccs3)no2)s1 [compound 63, 63]
